Read-outs that look alike come from different tables or passages of the source.

Experimental findings from patent US12404241B2 (Celgene Corporation, priority 2018, dated 2025) are described below.

This assay concerns the target T1, AR (Homo sapiens, UniProt P10275).
T1 construct: endogenous in cells; host or cells: VCaP cells
T1 sequence (P10275 1-920): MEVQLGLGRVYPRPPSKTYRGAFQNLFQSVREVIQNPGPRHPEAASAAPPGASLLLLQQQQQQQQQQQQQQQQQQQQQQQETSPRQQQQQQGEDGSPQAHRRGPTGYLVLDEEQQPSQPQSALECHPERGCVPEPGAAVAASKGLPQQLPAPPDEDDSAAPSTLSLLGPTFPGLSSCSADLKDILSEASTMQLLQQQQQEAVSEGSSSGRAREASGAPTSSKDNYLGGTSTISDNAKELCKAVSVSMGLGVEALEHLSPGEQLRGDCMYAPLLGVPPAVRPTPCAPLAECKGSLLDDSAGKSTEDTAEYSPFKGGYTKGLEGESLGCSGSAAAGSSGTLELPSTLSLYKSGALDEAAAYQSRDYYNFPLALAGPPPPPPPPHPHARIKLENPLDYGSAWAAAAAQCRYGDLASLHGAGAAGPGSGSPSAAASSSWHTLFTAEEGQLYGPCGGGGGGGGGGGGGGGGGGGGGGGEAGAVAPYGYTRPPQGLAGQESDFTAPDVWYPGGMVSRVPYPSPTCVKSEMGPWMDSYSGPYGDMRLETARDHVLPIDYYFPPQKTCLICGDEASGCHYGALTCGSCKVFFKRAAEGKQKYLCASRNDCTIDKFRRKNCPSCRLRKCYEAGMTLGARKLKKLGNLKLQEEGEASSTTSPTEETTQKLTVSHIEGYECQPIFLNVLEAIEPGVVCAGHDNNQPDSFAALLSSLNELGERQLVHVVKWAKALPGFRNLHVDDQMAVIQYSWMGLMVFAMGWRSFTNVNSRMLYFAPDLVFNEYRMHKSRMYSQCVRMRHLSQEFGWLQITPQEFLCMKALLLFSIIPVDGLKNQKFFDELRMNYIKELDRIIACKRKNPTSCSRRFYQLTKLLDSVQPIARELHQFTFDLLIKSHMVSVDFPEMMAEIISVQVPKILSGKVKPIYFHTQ
Description: VCAP AR Degradation Assay. As to conditions: for Y (AR degradation efficiency, % of DMSO control): class symbols *; for DC50: class symbols A-C. Type of assay: cell-based. The method in brief:
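Compounds were plated as 10-point 1:3 series reaching 5 μM final, then VCaP cells were seeded onto them and incubated 24 h at 37 °C. Cells were lysed cold, and total AR was measured by sandwich ELISA relative to 0.1% DMSO wells.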

For the compound `CC1(C)C(=O)N(c2cnc(C#N)c(C(F)(F)F)c2)C(=S)N1c1ccc(OCCN2CCN(CC(=O)Nc3cccc(NC4CCC(=O)NC4=O)c3)CC2)c(CCF)c1` (stereo not shown) [Example 161, 2-(4-(2-(4-(3-(6-cyano-5-(trifluoromethyl)pyridin-3-yl)-5,5-dimethyl-4-oxo-2-thioxoimidazolidin-1-yl)-2-(2-fluoroethyl)phenoxy)ethyl)piperazin-1-yl)-N-(3-(2,6-dioxopiperidin-3-ylamino)phenyl)acetamide], the “Y (AR degradation efficiency, % of DMSO control)” value is given as “* (0<Y<=25%)”. For the same compound, the DC50 (read-out: DC50) was under 100 nM.
As for `CC(C)c1cc(N2C(=S)N(c3ccc(C#N)c(C(F)(F)F)c3)C(=O)C2(C)C)ccc1OCCN1CCN(CC(=O)Nc2cccc(NC3CCC(=O)NC3=O)c2)[C@H](C)C1` (stereo partly drawn) [Example 162, 2-((R)-4-(2-(4-(3-(4-cyano-3-(trifluoromethyl)phenyl)-5,5-dimethyl-4-oxo-2-thioxoimidazolidin-1-yl)-2-isopropylphenoxy)ethyl)-2-methylpiperazin-1-yl)-N-(3-(2,6-dioxopiperidin-3-ylamino)phenyl)acetamide], the “Y (AR degradation efficiency, % of DMSO control)” value is given as “** (25%<Y<=35%)”. In addition, where the note is “read-out: DC50”, the DC50 was in the range of 100 to 500 nM.
With `CC(C)c1cc(N2C(=S)N(c3cnc(C#N)c(C(F)(F)F)c3)C(=O)C2(C)C)ccc1OCCN1CCN(CC(=O)Nc2cccc(NC3CCC(=O)NC3=O)c2)[C@H](C)C1` (stereo partly drawn) [Example 163, 2-((R)-4-(2-(4-(3-(6-cyano-5-(trifluoromethyl)pyridin-3-yl)-5,5-dimethyl-4-oxo-2-thioxoimidazolidin-1-yl)-2-isopropylphenoxy)ethyl)-2-methylpiperazin-1-yl)-N-(3-(2,6-dioxopiperidin-3-ylamino)phenyl)acetamide], the “Y (AR degradation efficiency, % of DMSO control)” value is given as “* (0<Y<=25%)”. Also, the DC50 (read-out: DC50) lay within 100 to 500 nM.
The like results for `C[C@@H]1CN(CCOc2ccc(N3C(=S)N(c4ccc(C#N)c(C(F)(F)F)c4)C(=O)C3(C)C)cc2CCF)CCN1CC(=O)Nc1cccc(NC2CCC(=O)NC2=O)c1` (stereo partly drawn) [Example 164, 2-((R)-4-(2-(4-(3-(4-cyano-3-(trifluoromethyl)phenyl)-5,5-dimethyl-4-oxo-2-thioxoimidazolidin-1-yl)-2-(2-fluoroethyl)phenoxy)ethyl)-2-methylpiperazin-1-yl)-N-(3-(2,6-dioxopiperidin-3-ylamino)phenyl)acetamide] were, in that order, “* (0<Y<=25%)” and under 100 nM.
For `CCc1cc(N2C(=S)N(c3cnc(C#N)c(C(F)(F)F)c3)C(=O)C2(C)C)ccc1OCCN1CCN(C2(C(=O)Nc3cc(Cl)cc(NC4CCC(=O)NC4=O)c3)CC2)CC1` (stereo not shown) [Example 165, N-(3-chloro-5-(2,6-dioxopiperidin-3-ylamino)phenyl)-1-(4-(2-(4-(3-(6-cyano-5-(trifluoromethyl)pyridin-3-yl)-5,5-dimethyl-4-oxo-2-thioxoimidazolidin-1-yl)-2-ethylphenoxy)ethyl)piperazin-1-yl)cyclopropanecarboxamide] the same measures were “* (0<Y<=25%)” and under 100 nM.
The like results for `C[C@@H]1CN(CCOc2ccc(N3C(=S)N(c4cnc(C#N)c(C(F)(F)F)c4)C(=O)C3(C)C)cc2CCF)CCN1CC(=O)Nc1cccc(NC2CCC(=O)NC2=O)c1` (stereo partly drawn) [Example 166, 2-((R)-4-(2-(4-(3-(6-cyano-5-(trifluoromethyl)pyridin-3-yl)-5,5-dimethyl-4-oxo-2-thioxoimidazolidin-1-yl)-2-(2-fluoroethyl)phenoxy)ethyl)-2-methylpiperazin-1-yl)-N-(3-(2,6-dioxopiperidin-3-ylamino)phenyl)acetamide] were, in that order, “* (0<Y<=25%)” and under 100 nM.
As to `CCc1cc(N2C(=S)N(c3cnc(C#N)c(Cl)c3)C(=O)C2(C)C)ccc1OCCN1CCN(CC(=O)Nc2cccc(NC3CCC(=O)NC3=O)c2)[C@H](C)C1` (stereo partly drawn) [Example 167, 2-((R)-4-(2-(4-(3-(5-chloro-6-cyanopyridin-3-yl)-5,5-dimethyl-4-oxo-2-thioxoimidazolidin-1-yl)-2-ethylphenoxy)ethyl)-2-methylpiperazin-1-yl)-N-(3-(2,6-dioxopiperidin-3-ylamino)phenyl)acetamide], the “Y (AR degradation efficiency, % of DMSO control)” value was “* (0<Y<=25%)”. For the setting “read-out: DC50”, the DC50 is under 100 nM.
Regarding `CCc1cc(N2C(=S)N(c3ccc(C#N)c(Cl)c3)C(=O)C2(C)C)ccc1OCCN1CCN(CC(=O)Nc2cccc(NC3CCC(=O)NC3=O)c2)[C@H](C)C1` (stereo partly drawn) [Example 168, 2-((R)-4-(2-(4-(3-(3-chloro-4-cyanophenyl)-5,5-dimethyl-4-oxo-2-thioxoimidazolidin-1-yl)-2-ethylphenoxy)ethyl)-2-methylpiperazin-1-yl)-N-(3-(2,6-dioxopiperidin-3-ylamino)phenyl)acetamide], the “Y (AR degradation efficiency, % of DMSO control)” value is “* (0<Y<=25%)”. Besides, the DC50 (read-out: DC50) was under 100 nM.
As to `CCc1cc(N2C(=S)N(c3cnc(C#N)c(C(F)(F)F)c3)C(=O)C2(C)C)ccc1OCCN1C[C@@H](C)N(CC(=O)Nc2cc(Cl)cc(NC3CCC(=O)NC3=O)c2)C[C@H]1C` (stereo partly drawn) [Example 169, N-(3-chloro-5-(2,6-dioxopiperidin-3-ylamino)phenyl)-2-((2R,5R)-4-(2-(4-(3-(6-cyano-5-(trifluoromethyl)pyridin-3-yl)-5,5-dimethyl-4-oxo-2-thioxoimidazolidin-1-yl)-2-ethylphenoxy)ethyl)-2,5-dimethylpiperazin-1-yl)acetamide], the “Y (AR degradation efficiency, % of DMSO control)” value is “* (0<Y<=25%)”. The DC50 (read-out: DC50) was under 100 nM.
For the compound `CC(C)c1cc(N2C(=S)N(c3ccc(C#N)c(C(F)(F)F)c3)C(=O)C2(C)C)ccc1OCCN1C[C@@H](C)N(CC(=O)Nc2cccc(NC3CCC(=O)NC3=O)c2)[C@@H](C)C1` (stereo partly drawn) [Example 170, 2-((2S,6R)-4-(2-(4-(3-(4-cyano-3-(trifluoromethyl)phenyl)-5,5-dimethyl-4-oxo-2-thioxoimidazolidin-1-yl)-2-isopropylphenoxy)ethyl)-2,6-dimethylpiperazin-1-yl)-N-(3-(2,6-dioxopiperidin-3-ylamino)phenyl)acetamide], the “Y (AR degradation efficiency, % of DMSO control)” value is reported as “* (0<Y<=25%)”. Besides, the DC50 (read-out: DC50) was under 100 nM.
For `CCc1cc(N2C(=S)N(c3cnc(C#N)c(C(F)(F)F)c3)C(=O)C23CCC3)ccc1OCCN1CC2CCC(C1)N2CC(=O)Nc1cccc(NC2CCC(=O)NC2=O)c1` (stereo not shown) [Example 171, 2-(3-(2-(4-(7-(6-cyano-5-(trifluoromethyl)pyridin-3-yl)-8-oxo-6-thioxo-5,7-diazaspiro[3.4]octan-5-yl)-2-ethylphenoxy)ethyl)-3,8-diazabicyclo[3.2.1]octan-8-yl)-N-(3-(2,6-dioxopiperidin-3-ylamino)phenyl)acetamide], the “Y (AR degradation efficiency, % of DMSO control)” value is “* (0<Y<=25%)” and the DC50 was under 100 nM.
Turning to `CCc1cc(N2C(=S)N(c3cnc(C#N)c(C(F)(F)F)c3)C(=O)C23CCC3)ccc1OCCN1C[C@@H]2CC[C@H]1CN2CC(=O)Nc1cccc(NC2CCC(=O)NC2=O)c1` (stereo partly drawn) [Example 172, 2-((1S,4S)-5-(2-(4-(7-(6-cyano-5-(trifluoromethyl)pyridin-3-yl)-8-oxo-6-thioxo-5,7-diazaspiro[3.4]octan-5-yl)-2-ethylphenoxy)ethyl)-2,5-diazabicyclo[2.2.2]octan-2-yl)-N-(3-(2,6-dioxopiperidin-3-ylamino)phenyl)acetamide], the “Y (AR degradation efficiency, % of DMSO control)” value is listed as “*** (35%<Y<50%)”. Besides, the DC50 (read-out: DC50) is 100 to 500 nM.
`CCc1cc(N2C(=S)N(c3cnc(C#N)c(C(F)(F)F)c3)C(=O)C2(C)C)ccc1OCCN1CC2CCC(C1)N2CC(=O)Nc1cc(Cl)cc(NC2CCC(=O)NC2=O)c1` (stereo not shown) [Example 173, N-(3-chloro-5-(2,6-dioxopiperidin-3-ylamino)phenyl)-2-(3-(2-(4-(3-(6-cyano-5-(trifluoromethyl)pyridin-3-yl)-5,5-dimethyl-4-oxo-2-thioxoimidazolidin-1-yl)-2-ethylphenoxy)ethyl)-3,8-diazabicyclo[3.2.1]octan-8-yl)acetamide]: the “Y (AR degradation efficiency, % of DMSO control)” value is listed as “* (0<Y<=25%)” and the DC50 is under 100 nM.
As to `CC1(C)C(=O)N(c2ccc(C#N)c(C(F)(F)F)c2)C(=S)N1c1ccc(OCCN2CCN(CC(=O)Nc3cc(NC4CCC(=O)NC4=O)ccc3F)CC2)c(CC(F)F)c1` (stereo not shown) [Example 174, 2-(4-(2-(4-(3-(4-cyano-3-(trifluoromethyl)phenyl)-5,5-dimethyl-4-oxo-2-thioxoimidazolidin-1-yl)-2-(2,2-difluoroethyl)phenoxy)ethyl)piperazin-1-yl)-N-(5-(2,6-dioxopiperidin-3-ylamino)-2-fluorophenyl)acetamide], the “Y (AR degradation efficiency, % of DMSO control)” value is on record as “* (0<Y<=25%)”. In addition, under “read-out: DC50”, the DC50 is under 100 nM.
